# Measured values: US20230085307A1, “PYRIDAZINONE COMPOUND AND HERBICIDE” (NISSAN CHEMICAL CORPORATION, priority 2019, published 2023)
# What was measured:
# windgrass [1] = assay: Test Example 5: herbicidal effect by foliage application, plastic box (Table 20, symbol L); assay type: in vivo, windgrass (Apera spica-venti); conditions: foliage application, 320 g/ha, three weeks after application
# How it was run: (§1)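 Foliar spray test: emulsion formulation diluted in water to a set application rate, sprayed onto 14-day-old plants raised in diluvial soil at 25° C to 30° C under glass. Both herbicidal effect and crop effect rated visually three weeks later.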
# false cleavers [2] = assay: Test Example 4: herbicidal effect by soil treatment (Table 19, symbol Q); assay type: in vivo, false cleavers (Galium spurium); conditions: amount of applied herbicide 320 g/ha
# How it was run: (§2)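 Step 1: sow seeds in sterilized diluvial soil, cover ~1.5 cm. Step 2: spray diluted emulsion onto soil surface at predetermined rate. Step 3: greenhouse, 25–30° C, three weeks. Step 4: grade effect on each plant by earlier criteria.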
# wild oat [3] = assay: Test Example 4: herbicidal effect by soil treatment (Table 19, symbol I); assay type: in vivo, wild oat (Avena fatua); conditions: amount of applied herbicide 320 g/ha
# How it was run: as §2
# green foxtail [4] = assay: Test Example 5: herbicidal effect by foliage application, plastic box (Table 20, symbol G); assay type: in vivo, green foxtail (Setaria viridis); conditions: foliage application, 320 g/ha, three weeks after application
# How it was run: as §1
# late watergrass = assay: Test Example 1: herbicidal activity, application before weed generation under submerged conditions (Table 16, symbol A); assay type: in vivo, late watergrass (Echinochloa oryzicola); conditions: 320 g/ha applied herbicide
# How it was run: (§3)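 Submerged Wagner pots (alluvial soil, 4 cm water) sown with weed seeds and planted with 2.5-leaf rice seedlings; emulsifiable concentrate diluted in water applied to water surface on sowing day. Held in greenhouse at 25-30 °C; injury scored 0-5 by herbicidal rate after three weeks.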
# Italian ryegrass [5] = assay: Test Example 4: herbicidal effect by soil treatment (Table 19, symbol K); assay type: in vivo, Italian ryegrass (Lolium multiflorum); conditions: amount of applied herbicide 320 g/ha
# How it was run: as §2
# persian speedwell [6] = assay: Test Example 4: herbicidal effect by soil treatment (Table 19, symbol R); assay type: in vivo, Persian speedwell (Veronica persica); conditions: amount of applied herbicide 320 g/ha
# How it was run: as §2
# wild oat [7] = assay: Test Example 5: herbicidal effect by foliage application, plastic box (Table 20, symbol I); assay type: in vivo, wild oat (Avena fatua); conditions: foliage application, 320 g/ha, three weeks after application
# How it was run: as §1
# windgrass [8] = assay: Test Example 4: herbicidal effect by soil treatment (Table 19, symbol L); assay type: in vivo, windgrass (Apera spica-venti); conditions: amount of applied herbicide 320 g/ha
# How it was run: as §2
# false cleavers [9] = assay: Test Example 5: herbicidal effect by foliage application, plastic box (Table 20, symbol Q); assay type: in vivo, false cleavers (Galium spurium); conditions: foliage application, 320 g/ha, three weeks after application
# How it was run: as §1
# southern crabgrass [10] = assay: Test Example 5: herbicidal effect by foliage application, plastic box (Table 20, symbol F); assay type: in vivo, southern crabgrass (Digitaria ciliaris); conditions: foliage application, 320 g/ha, three weeks after application
# How it was run: as §1
# Italian ryegrass [11] = assay: Test Example 5: herbicidal effect by foliage application, plastic box (Table 20, symbol K); assay type: in vivo, Italian ryegrass (Lolium multiflorum); conditions: foliage application, 320 g/ha, three weeks after application
# How it was run: as §1
# barnyard grass [12] = assay: Test Example 5: herbicidal effect by foliage application, plastic box (Table 20, symbol H); assay type: in vivo, barnyard grass (Echinochloa crus-galli); conditions: foliage application, 320 g/ha, three weeks after application
# How it was run: as §1
# chickweed [13] = assay: Test Example 5: herbicidal effect by foliage application, plastic box (Table 20, symbol P); assay type: in vivo, common chickweed (Stellaria media); conditions: foliage application, 320 g/ha, three weeks after application
# How it was run: as §1
# blackgrass [14] = assay: Test Example 4: herbicidal effect by soil treatment (Table 19, symbol J); assay type: in vivo, blackgrass (Alopecurus myosuroides); conditions: amount of applied herbicide 320 g/ha
# How it was run: as §2
# Japanese bulrush = assay: Test Example 1: herbicidal activity, application before weed generation under submerged conditions (Table 16, symbol B); assay type: in vivo, Japanese bulrush (Schoenoplectus juncoides); conditions: 320 g/ha applied herbicide
# How it was run: as §3
# velvetleaf [15] = assay: Test Example 5: herbicidal effect by foliage application, plastic box (Table 20, symbol M); assay type: in vivo, velvetleaf (Abutilon theophrasti); conditions: foliage application, 320 g/ha, three weeks after application
# How it was run: as §1
# redroot pigweed [16] = assay: Test Example 4: herbicidal effect by soil treatment (Table 19, symbol N); assay type: in vivo, redroot pigweed (Amaranthus retroflexus); conditions: amount of applied herbicide 320 g/ha
# How it was run: as §2
# barnyard grass [17] = assay: Test Example 3: herbicidal effect by foliage application, Wagner pot (Table 18, symbol H); assay type: in vivo, barnyard grass (Echinochloa crus-galli); conditions: 320 g/ha
# How it was run: (§4)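 Plants were sown in alluvial soil held under 0.1–0.5 cm standing water and grown 14 days in a greenhouse at 25–30 °C. An emulsifiable formulation, water-diluted to the set dose, was then sprayed onto the foliage, and effects were scored three weeks later using previously defined criteria.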
# barnyard grass [18] = assay: Test Example 4: herbicidal effect by soil treatment (Table 19, symbol H); assay type: in vivo, barnyard grass (Echinochloa crus-galli); conditions: amount of applied herbicide 320 g/ha
# How it was run: as §2
# oval-leafed pondweed = assay: Test Example 1: herbicidal activity, application before weed generation under submerged conditions (Table 16, symbol C); assay type: in vivo, oval-leafed pondweed (Monochoria vaginalis); conditions: 320 g/ha applied herbicide
# How it was run: as §3
# southern crabgrass [19] = assay: Test Example 4: herbicidal effect by soil treatment (Table 19, symbol F); assay type: in vivo, southern crabgrass (Digitaria ciliaris); conditions: amount of applied herbicide 320 g/ha
# How it was run: as §2
# persian speedwell [20] = assay: Test Example 5: herbicidal effect by foliage application, plastic box (Table 20, symbol R); assay type: in vivo, Persian speedwell (Veronica persica); conditions: foliage application, 320 g/ha, three weeks after application
# How it was run: as §1
# rice flat sedge = assay: Test Example 3: herbicidal effect by foliage application, Wagner pot (Table 18, symbol E); assay type: in vivo, rice flat sedge (Cyperus iria); conditions: 320 g/ha
# How it was run: as §4
# chickweed [21] = assay: Test Example 4: herbicidal effect by soil treatment (Table 19, symbol P); assay type: in vivo, common chickweed (Stellaria media); conditions: amount of applied herbicide 320 g/ha
# How it was run: as §2
# blackgrass [22] = assay: Test Example 5: herbicidal effect by foliage application, plastic box (Table 20, symbol J); assay type: in vivo, blackgrass (Alopecurus myosuroides); conditions: foliage application, 320 g/ha, three weeks after application
# How it was run: as §1
# green foxtail [23] = assay: Test Example 4: herbicidal effect by soil treatment (Table 19, symbol G); assay type: in vivo, green foxtail (Setaria viridis); conditions: amount of applied herbicide 320 g/ha
# How it was run: as §2
# redroot pigweed [24] = assay: Test Example 5: herbicidal effect by foliage application, plastic box (Table 20, symbol N); assay type: in vivo, redroot pigweed (Amaranthus retroflexus); conditions: foliage application, 320 g/ha, three weeks after application
# How it was run: as §1
# lambsquarters [25] = assay: Test Example 4: herbicidal effect by soil treatment (Table 19, symbol O); assay type: in vivo, lambsquarters (Chenopodium album); conditions: amount of applied herbicide 320 g/ha
# How it was run: as §2
# velvetleaf [26] = assay: Test Example 4: herbicidal effect by soil treatment (Table 19, symbol M); assay type: in vivo, velvetleaf (Abutilon theophrasti); conditions: amount of applied herbicide 320 g/ha
# How it was run: as §2
# lambsquarters [27] = assay: Test Example 5: herbicidal effect by foliage application, plastic box (Table 20, symbol O); assay type: in vivo, lambsquarters (Chenopodium album); conditions: foliage application, 320 g/ha, three weeks after application
# How it was run: as §1
# Chinese sprangletop = assay: Test Example 3: herbicidal effect by foliage application, Wagner pot (Table 18, symbol D); assay type: in vivo, chinese sprangletop (Leptochloa chinensis); conditions: 320 g/ha
# How it was run: as §4
Compound,"herbicidal effect grade, L: windgrass (windgrass [1])","herbicidal effect rating, Q: false cleavers (false cleavers [2])","herbicidal effect rating, I: wild oat (wild oat [3])","herbicidal effect grade, G: green foxtail (green foxtail [4])",Herbicidal effect on A: late watergrass (grade 0-5) (late watergrass),"herbicidal effect rating, K: Italian ryegrass (Italian ryegrass [5])","herbicidal effect rating, R: persian speedwell (persian speedwell [6])","herbicidal effect grade, I: wild oat (wild oat [7])","herbicidal effect rating, L: windgrass (windgrass [8])","herbicidal effect grade, Q: false cleavers (false cleavers [9])","herbicidal effect grade, F: southern crabgrass (southern crabgrass [10])","herbicidal effect grade, K: Italian ryegrass (Italian ryegrass [11])","herbicidal effect grade, H: barnyard grass (barnyard grass [12])","herbicidal effect grade, P: chickweed (chickweed [13])","herbicidal effect rating, J: blackgrass (blackgrass [14])",Herbicidal effect on B: Japanese bulrush (grade 0-5) (Japanese bulrush),"herbicidal effect grade, M: velvetleaf (velvetleaf [15])","herbicidal effect rating, N: redroot pigweed (redroot pigweed [16])","herbicidal effect on H (barnyard grass), rating 0-5 (barnyard grass [17])","herbicidal effect rating, H: barnyard grass (barnyard grass [18])",further results
CCCCc1ccc(-c2sc3ccccc3c2-c2c(O)c(C)nn(C)c2=O)cc1 [1-005],0 (Herbicidal rate of 5% or less (almost no effect)),0 (Herbicidal rate of 5% or less (almost no effect)),0 (Herbicidal rate of 5% or less (almost no effect)),0 (Herbicidal rate of 5% or less (almost no effect)),2 (Herbicidal rate of 20% or more and less than 40%),0 (Herbicidal rate of 5% or less (almost no effect)),4 (Herbicidal rate of 70% or more and less than 90%),0 (Herbicidal rate of 5% or less (almost no effect)),0 (Herbicidal rate of 5% or less (almost no effect)),0 (Herbicidal rate of 5% or less (almost no effect)),0 (Herbicidal rate of 5% or less (almost no effect)),0 (Herbicidal rate of 5% or less (almost no effect)),0 (Herbicidal rate of 5% or less (almost no effect)),5 (Herbicidal rate of 90% or more (almost completely withered)),0 (Herbicidal rate of 5% or less (almost no effect)),0 (Herbicidal rate of 5% or less (almost no effect)),3 (Herbicidal rate of 40% or more and less than 70%),0 (Herbicidal rate of 5% or less (almost no effect)),4 (Herbicidal rate of 70% or more and less than 90%),0 (Herbicidal rate of 5% or less (almost no effect)),"Herbicidal effect on C: oval-leafed pondweed (grade 0-5) (oval-leafed pondweed): 0 (Herbicidal rate of 5% or less (almost no effect)); herbicidal effect rating, F: southern crabgrass (southern crabgrass [19]): 0 (Herbicidal rate of 5% or less (almost no effect)); herbicidal effect grade, R: persian speedwell (persian speedwell [20]): 5 (Herbicidal rate of 90% or more (almost completely withered)); herbicidal effect on E (rice flat sedge), rating 0-5 (rice flat sedge): 5 (Herbicidal rate of 90% or more (almost completely withered)); herbicidal effect rating, P: chickweed (chickweed [21]): 0 (Herbicidal rate of 5% or less (almost no effect)); herbicidal effect grade, J: blackgrass (blackgrass [22]): 0 (Herbicidal rate of 5% or less (almost no effect)); herbicidal effect rating, G: green foxtail (green foxtail [23]): 0 (Herbicidal rate of 5% or less (almost no effect)); herbicidal effect grade, N: redroot pigweed (redroot pigweed [24]): 4 (Herbicidal rate of 70% or more and less than 90%); herbicidal effect rating, O: lambsquarters (lambsquarters [25]): 0 (Herbicidal rate of 5% or less (almost no effect)); herbicidal effect rating, M: velvetleaf (velvetleaf [26]): 0 (Herbicidal rate of 5% or less (almost no effect)); herbicidal effect grade, O: lambsquarters (lambsquarters [27]): 5 (Herbicidal rate of 90% or more (almost completely withered)); herbicidal effect on D (Chinese sprangletop), rating 0-5 (Chinese sprangletop): 0 (Herbicidal rate of 5% or less (almost no effect))"
CCCCc1ccc(-c2sc3ccccc3c2-c2c(OC(=O)CCC)c(C)nn(C)c2=O)cc1 [1-006],0 (Herbicidal rate of 5% or less (almost no effect)),0 (Herbicidal rate of 5% or less (almost no effect)),0 (Herbicidal rate of 5% or less (almost no effect)),0 (Herbicidal rate of 5% or less (almost no effect)),3 (Herbicidal rate of 40% or more and less than 70%),0 (Herbicidal rate of 5% or less (almost no effect)),3 (Herbicidal rate of 40% or more and less than 70%),0 (Herbicidal rate of 5% or less (almost no effect)),0 (Herbicidal rate of 5% or less (almost no effect)),0 (Herbicidal rate of 5% or less (almost no effect)),0 (Herbicidal rate of 5% or less (almost no effect)),0 (Herbicidal rate of 5% or less (almost no effect)),0 (Herbicidal rate of 5% or less (almost no effect)),5 (Herbicidal rate of 90% or more (almost completely withered)),0 (Herbicidal rate of 5% or less (almost no effect)),1 (Herbicidal rate of 5% or more and less than 20%),4 (Herbicidal rate of 70% or more and less than 90%),0 (Herbicidal rate of 5% or less (almost no effect)),3 (Herbicidal rate of 40% or more and less than 70%),0 (Herbicidal rate of 5% or less (almost no effect)),"Herbicidal effect on C: oval-leafed pondweed (grade 0-5) (oval-leafed pondweed): 0 (Herbicidal rate of 5% or less (almost no effect)); herbicidal effect rating, F: southern crabgrass (southern crabgrass [19]): 0 (Herbicidal rate of 5% or less (almost no effect)); herbicidal effect grade, R: persian speedwell (persian speedwell [20]): 5 (Herbicidal rate of 90% or more (almost completely withered)); herbicidal effect on E (rice flat sedge), rating 0-5 (rice flat sedge): 5 (Herbicidal rate of 90% or more (almost completely withered)); herbicidal effect rating, P: chickweed (chickweed [21]): 0 (Herbicidal rate of 5% or less (almost no effect)); herbicidal effect grade, J: blackgrass (blackgrass [22]): 0 (Herbicidal rate of 5% or less (almost no effect)); herbicidal effect rating, G: green foxtail (green foxtail [23]): 0 (Herbicidal rate of 5% or less (almost no effect)); herbicidal effect grade, N: redroot pigweed (redroot pigweed [24]): 5 (Herbicidal rate of 90% or more (almost completely withered)); herbicidal effect rating, O: lambsquarters (lambsquarters [25]): 4 (Herbicidal rate of 70% or more and less than 90%); herbicidal effect rating, M: velvetleaf (velvetleaf [26]): 0 (Herbicidal rate of 5% or less (almost no effect)); herbicidal effect grade, O: lambsquarters (lambsquarters [27]): 4 (Herbicidal rate of 70% or more and less than 90%); herbicidal effect on D (Chinese sprangletop), rating 0-5 (Chinese sprangletop): 0 (Herbicidal rate of 5% or less (almost no effect))"
